These results are taken from patent US20240336565A1, “SOLID FORMS OF OSANETANT” (Acer Therapeutics, Inc., priority 2021, published 2024).

Assay type in all cases: physicochemical
A short description of series [1]: Hydration study (stirring in ethanol: water mixtures, XRPD). The protocol:
20 mg of osanetant p-toluenesulfonic acid Form 1 was stirred in the appropriate ethanol: water mixtures for 24 h at 25° C. Where clear solutions were observed after 1 h at 25° C., 0.5 mL of liquor was removed, and additional solid was added until a slurry was maintained. After 24 h total, the experiments were isolated by centrifugation, and the solids were analyzed by XRPD.
Osanetant benzenesulfonic acid Form 3 (20 mg) was stirred in the appropriate ethanol: water mixtures for 24 h at 25° C. Where clear solutions were observed after 1 h at 25° C., 0.5 mL of liquor was removed from the Aw 0.257 sample, and additional solid was added until a slurry was maintained. After 24 h total, the experiments were isolated by centrifugation, and the solids were analyzed by XRPD.

Series [2] in a line: Hygroscopicity / dynamic vapor sorption (DVS). The protocol: The osanetant p-toluenesulfonic acid Form 1 solids consisted of aggregated crystals with an undefined morphology. Select peaks which can be used to characterize osanetant p-toluenesulfonic acid Form 1 include one or more of 11.4°2θ±0.2°2θ, 18.0°2θ±0.2°2θ, 19.0°2θ±0.2°2θ, 19.3°2θ±0.2°2θ, 19.8°2θ±0.2°2θ, or 21.1°2θ±0.2°2θ. In some embodiments, osanetant p-toluenesulfonic acid Form 1 is a monohydrate.

Series [3] in a line: Long term stability: base (2M NaOH) at 60° C. The following applies: 2M NaOH, 60° C., up to 14 days. The protocol: Osanetant p-toluenesulfonic acid Form 1 and osanetant benzenesulfonic acid Form 1 were tested for long-term stability across a number of different conditions, as detailed below.
Base at 60° C.—Osanetant p-toluenesulfonic acid Form 1 and osanetant benzenesulfonic acid Form 1 were prepared at an osanetant content 10 times the normal working concentration then added to HPLC vials containing 2M NaOH and stored in a darkened oven at 60° C. Samples were diluted to 2 mg/mL for analysis and were taken after T=1, 2, 4, 7, and 14 days storage. […] The purity of the resulting material is described in Table 45: […]

Take `CC(=O)N(C)C1(c2ccccc2)CCN(CCC[C@]2(c3ccc(Cl)c(Cl)c3)CCCN(C(=O)c3ccccc3)C2)CC1.Cc1ccc(S(=O)(=O)O)cc1` [osanetant p-toluenesulfonic acid Form 1, (R)-N-(1-(3-(1-benzoyl-3-(3,4-dichlorophenyl)piperidin-3-yl)propyl)-4-phenylpiperidin-4-yl)-N-methylacetamide p-toluenesulfonic acid]: the “XRPD form after stirring in ethanol: water mixtures” value in series [1] (24 h at 25° C., all mixtures tested) is listed as “no change in form”. In addition, the XRPD result is listed as “Form 1” in series [1] (slurry in ethanol:water 63.6:36.4 % v/v, calc Aw 0.745, 24 h at 25° C.); “Form 1” in series [1] (slurry in ethanol:water 92.9:7.1 % v/v, calc Aw 0.507, 24 h at 25° C.); “Form 1” in series [1] (slurry in ethanol:water 98.4:1.6 % v/v, calc Aw 0.257, 24 h at 25° C.). For the same molecule, the “hygroscopicity / water loss on DVS analysis” value in series [2] is “did not lose the water”. In series [2] (at 80% RH), the “weight gain (hygroscopicity)” value is 0.2 wt. %. In addition, in series [3], the “degradation on storage (purity)” value is listed as “lack of degradation”.
